Measured values reported in ChEMBL document CHEMBL1201862, “PubChem BioAssay data set” (2004).
Active and inactive are the calls of the source.

Columns and labels:
[1] = cytotoxicity toward NIH3T3 fibroblasts, dose response, counter-screen, cell-based, ATP luminescence, mouse fibroblasts (AID 2010); assay type: functional;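 further: cells exposed to compound for about 90 hours before reading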
[2] = inhibitors of intracellular T. cruzi replication, confirmation, NIH3T3 host cells, beta-gal luminescence (AID 2044); assay type: functional, cell-based;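 further: intracellular parasites grown in NIH/3T3 mouse fibroblasts as host cells; luminescent beta-galactosidase reporter signal from transgenic T. cruzi replicating inside host cells; inhibitors lower the luminescence signal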
[3] = target: T1, Heat shock factor protein 1 (Mus musculus, UniProt P38532); assay: HSF1 potentiators in luciferase reporter cells, confirmation, cell-based, NIH3T3, luminescence, dose retest (AID 435004); assay type: functional;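 further: stress induced by proteasome inhibitor MG132 added 30 min after compound; luciferase reporter driven by HSF1 response element in NIH3T3 cells; actives raise luminescence as potentiators of the MG132 stress response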
T1 sequence (P38532 whole entry): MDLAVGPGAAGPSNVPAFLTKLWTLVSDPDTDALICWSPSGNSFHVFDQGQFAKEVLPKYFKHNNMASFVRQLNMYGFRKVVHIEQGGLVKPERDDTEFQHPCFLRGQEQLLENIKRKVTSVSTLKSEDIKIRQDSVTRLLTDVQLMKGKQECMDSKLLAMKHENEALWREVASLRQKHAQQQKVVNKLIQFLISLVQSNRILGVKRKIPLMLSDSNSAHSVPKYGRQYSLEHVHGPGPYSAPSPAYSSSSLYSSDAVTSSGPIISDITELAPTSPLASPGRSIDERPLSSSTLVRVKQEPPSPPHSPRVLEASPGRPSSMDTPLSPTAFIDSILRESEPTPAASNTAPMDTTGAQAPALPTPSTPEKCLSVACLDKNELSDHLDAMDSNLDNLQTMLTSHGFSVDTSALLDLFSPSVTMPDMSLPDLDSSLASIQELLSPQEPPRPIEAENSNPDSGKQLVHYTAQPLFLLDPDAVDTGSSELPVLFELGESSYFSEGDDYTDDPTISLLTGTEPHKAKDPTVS

Cytochrome P450 1A2 = target: T2, Cytochrome P450 1A2 (Homo sapiens, UniProt P05177);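 further: PubChem cytochrome P450 panel assay, CYP1A2 panel member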
T2 sequence (P05177 whole entry): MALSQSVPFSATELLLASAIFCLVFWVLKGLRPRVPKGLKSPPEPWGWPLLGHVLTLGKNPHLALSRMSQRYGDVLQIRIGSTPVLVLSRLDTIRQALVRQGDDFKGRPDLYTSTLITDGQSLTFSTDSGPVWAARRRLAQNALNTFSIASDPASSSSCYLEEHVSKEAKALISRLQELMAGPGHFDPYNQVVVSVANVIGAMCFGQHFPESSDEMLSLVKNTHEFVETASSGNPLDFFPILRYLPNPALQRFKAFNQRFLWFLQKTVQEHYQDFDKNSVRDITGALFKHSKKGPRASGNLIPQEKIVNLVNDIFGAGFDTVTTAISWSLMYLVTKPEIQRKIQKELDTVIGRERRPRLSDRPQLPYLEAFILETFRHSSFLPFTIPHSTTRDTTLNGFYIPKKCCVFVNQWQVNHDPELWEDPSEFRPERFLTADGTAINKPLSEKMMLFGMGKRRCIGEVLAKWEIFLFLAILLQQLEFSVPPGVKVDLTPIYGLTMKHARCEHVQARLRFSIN

Cytochrome P450 2C19 = Cytochrome P450 2C19 (Homo sapiens, UniProt P33261); assay: Cytochrome panel assay with activity outcomes. Panel member name: p450-cyp2c19 Compounds with AC50 equal or less than 10 uM are considered active; assay type: functional
Chain of Cytochrome P450 2C19 (P33261 whole entry): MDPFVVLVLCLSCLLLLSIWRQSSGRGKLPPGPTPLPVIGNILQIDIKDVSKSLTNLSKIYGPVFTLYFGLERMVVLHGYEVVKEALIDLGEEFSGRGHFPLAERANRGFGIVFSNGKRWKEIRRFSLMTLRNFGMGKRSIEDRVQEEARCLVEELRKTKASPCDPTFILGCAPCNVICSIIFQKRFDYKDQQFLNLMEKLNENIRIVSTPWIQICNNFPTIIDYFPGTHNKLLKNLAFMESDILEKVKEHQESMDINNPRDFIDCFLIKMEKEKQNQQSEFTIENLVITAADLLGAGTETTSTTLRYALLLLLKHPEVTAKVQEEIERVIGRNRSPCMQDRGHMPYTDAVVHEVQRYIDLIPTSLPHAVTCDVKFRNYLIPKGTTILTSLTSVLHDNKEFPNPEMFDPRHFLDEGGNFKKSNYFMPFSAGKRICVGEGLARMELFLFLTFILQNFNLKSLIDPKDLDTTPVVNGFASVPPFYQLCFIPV

Streptokinase A = target: T3, Streptokinase A (Streptococcus pyogenes serotype M1, UniProt P10520); assay: S. pyogenes streptokinase expression inhibitors, potency, dose response, plasminogen activation absorbance, OD405 (AID 1914); assay type: functional, Streptococcus pyogenes M1 GAS;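 further: secreted streptokinase activity via plasminogen activation per viability signal from cell pellet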
T3 sequence (P10520 whole entry): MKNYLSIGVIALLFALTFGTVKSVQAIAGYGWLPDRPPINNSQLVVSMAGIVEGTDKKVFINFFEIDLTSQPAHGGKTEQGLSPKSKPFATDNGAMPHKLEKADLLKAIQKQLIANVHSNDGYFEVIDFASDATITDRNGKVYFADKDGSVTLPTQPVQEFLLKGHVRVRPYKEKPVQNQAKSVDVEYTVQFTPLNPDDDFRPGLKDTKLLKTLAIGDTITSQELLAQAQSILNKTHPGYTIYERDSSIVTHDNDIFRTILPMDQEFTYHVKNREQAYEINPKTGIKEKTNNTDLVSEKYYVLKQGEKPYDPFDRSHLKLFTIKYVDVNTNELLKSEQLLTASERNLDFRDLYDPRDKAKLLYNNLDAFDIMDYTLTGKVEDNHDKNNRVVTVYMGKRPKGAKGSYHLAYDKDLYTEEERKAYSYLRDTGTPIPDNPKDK

Streptococcus = assay: Group A Streptococcus viability loss, dose response, counter-screen for streptokinase expression inhibitor project, luminescence, BacTiterGlo (AID 1915); assay type: functional, organism-based;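 further: potency for reduction of bacterial viability or growth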
[4] = system: Streptococcus sp. 'group A'; assay: growth inhibition of control SK(-) GAS strain, dose response, counter-screen for streptokinase expression inhibitor project, luminescence, kanamycin, BacTiterGlo, confirmation (AID 1900); assay type: functional, organism-based
Cytochrome P450 3A4 = Cytochrome P450 3A4 (Homo sapiens, UniProt P08684);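 further: CYP3A4 tested as one member of a cytochrome P450 panel screen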
Chain of Cytochrome P450 3A4 (P08684 whole entry): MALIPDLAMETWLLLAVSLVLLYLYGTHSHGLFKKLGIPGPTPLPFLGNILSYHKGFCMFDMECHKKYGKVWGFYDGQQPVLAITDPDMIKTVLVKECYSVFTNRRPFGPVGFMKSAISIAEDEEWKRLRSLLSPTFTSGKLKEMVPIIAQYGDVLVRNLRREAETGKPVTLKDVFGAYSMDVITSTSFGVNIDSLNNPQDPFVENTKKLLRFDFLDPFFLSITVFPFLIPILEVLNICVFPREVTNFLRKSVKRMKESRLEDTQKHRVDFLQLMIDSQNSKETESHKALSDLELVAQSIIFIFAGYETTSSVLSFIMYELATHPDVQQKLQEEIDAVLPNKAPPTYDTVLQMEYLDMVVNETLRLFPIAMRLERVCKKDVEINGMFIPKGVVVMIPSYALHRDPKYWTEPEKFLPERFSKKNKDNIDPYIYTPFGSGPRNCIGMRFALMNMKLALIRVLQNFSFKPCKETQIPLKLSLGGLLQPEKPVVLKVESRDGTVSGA

**Q.** With Cc1nn2c(O)c3c(nc2c1-c1ccc(F)cc1)CCCC3 as the compound, how does the EC50 [1] read?
**A.** The EC50 was 10.1 µM (active).

**Q.** What about the EC50 [2] of the same compound?
**A.** The EC50 was 451 nM (active).

**Q.** Which EC50 [3] does the source give for CC1(C)Cc2c(C#N)c(N3CCCC3)nc(-c3ccco3)c2CO1 here?
**A.** The EC50 was > 260 µM (inactive).

**Q.** For N[C@H](Cc1ccc(Cl)cc1)C(=O)O, which AC50 (Cytochrome P450 1A2) is on record?
**A.** The AC50 was 2 µM (inconclusive).

**Q.** With O=C1[C@H]2[C@@H](c3ccc(Cl)cc3)N3C(=O)N(c4cccc(Br)c4)C(=O)[C@@]3(Cc3ccc(Cl)cc3)[C@H]2C(=O)N1C1CCCCC1 as the compound, how does the EC50 [1] read?
**A.** The EC50 was > 60 µM (not active).

**Q.** What about the EC50 [2] of the same compound?
**A.** Its EC50 is 1240 nM (active).

**Q.** With Cn1c(=O)c2nc(CCCCC(=O)O)[nH]c2n(C)c1=O as the compound, how does the AC50 (Cytochrome P450 1A2) read?
**A.** The AC50 was 0.794 µM (inconclusive).

**Q.** And the AC50 (Cytochrome P450 2C19)?
**A.** The AC50 was “inconclusive”.

**Q.** For COC(=O)Cc1ccc(NC(=O)c2ccc(C)c(C)c2)cc1, which EC50 [3] is on record?
**A.** The EC50 was 69.4 µM (active).

**Q.** With CC1=CC(=O)C2=C(C)C[C@@H](O)[C@@H]3[C@@H](OC(=O)[C@H]3C)[C@H]12 as the compound, how does the AC50 (Cytochrome P450 1A2) read?
**A.** Its AC50 is 25.1 µM (inconclusive).

**Q.** Which results are given for Cc1cccc(C(=O)OC(C)CN2CCN(C)CC2)c1 (centres undefined)?
**A.** EC50 [1]: > 30 µM (not active); EC50 [2]: 994 nM (active)

**Q.** Which AC50 (Cytochrome P450 1A2) does the source give for O=C(Nc1nnc(C2CC2)s1)c1cc(S(=O)(=O)N2CCN(c3ccccc3)CC2)ccc1Cl here?
**A.** Its AC50 is 11.2 µM (inconclusive).

**Q.** For O=C(Nc1cc(S(=O)(=O)N2CCOCC2)ccc1-n1cncn1)c1ccc(Cl)cc1, which EC50 [1] is on record?
**A.** Its EC50 is > 60 µM (not active).

**Q.** What about the EC50 [2] of the same compound?
**A.** The EC50 was 2540 nM (active).

**Q.** Which EC50 [3] does the source give for O=C(Nc1ccc2c(c1)C(=O)OC2)c1ccc(Cl)cc1 here?
**A.** Its EC50 is > 260 µM (inactive).

**Q.** With Cn1cc(CNC(=O)c2sc3cccc(Cl)c3c2Cl)cn1 as the compound, how does the EC50 [3] read?
**A.** Its EC50 is > 260 µM (inactive).

**Q.** Which EC50 [1] does the source give for COc1ccc(-n2nc([N+](=O)[O-])c(NCCc3ccc(Cl)cc3)[n+]2[O-])cc1 here?
**A.** Its EC50 is > 60 µM (not active).

**Q.** What about the EC50 [2] of the same compound?
**A.** The EC50 was 602 nM (active).

**Q.** What does the source list for COc1ccccc1CN1CCN(Cc2ccc(Cl)cc2)CC1?
**A.** EC50 [1]: > 60 µM (not active); EC50 [2]: 439 nM (active)

**Q.** With CC1(C)CC(c2nc(-c3ccc(Cl)cc3)cs2)CCS1 (centres undefined) as the compound, how does the EC50 (Streptokinase A) read?
**A.** Its EC50 is 13.9 µM (active).

**Q.** What about the EC50 (Streptococcus) of the same compound?
**A.** The EC50 was > 150 µM (not active).

**Q.** And the EC50 [4]?
**A.** The EC50 was 9.13 µM (active).

**Q.** With CCCCOc1ccc(CSc2nc[nH]n2)cc1 as the compound, how does the EC50 [3] read?
**A.** Its EC50 is 106 µM (active).

**Q.** For CCCCN(C(=O)/C=C/c1ccco1)c1c(N)n(CCC)c(=O)[nH]c1=O, which EC50 [3] is on record?
**A.** The EC50 was > 260 µM (inactive).

**Q.** Which EC50 [1] does the source give for CCOc1ccc2nc(N(CCN(CC)CC)C(=O)c3ccc([N+](=O)[O-])cc3)sc2c1 here?
**A.** The EC50 was > 60 µM (not active).

**Q.** What about the EC50 [2] of the same compound?
**A.** The EC50 was 184 nM (active).

**Q.** For O=C(c1cccc(F)c1)N1CCC2(CCCN(c3cccc(-c4ccccc4)c3)C2)CC1, which AC50 (Cytochrome P450 1A2) is on record?
**A.** The AC50 was 15.8 µM (inconclusive).

**Q.** With CCOC(=O)Cn1c(S(=O)(=O)Cc2ccc(F)cc2)nc(-c2ccccc2)c1-c1ccccc1 as the compound, how does the EC50 [3] read?
**A.** The EC50 was > 260 µM (inactive).

**Q.** Which AC50 (Cytochrome P450 1A2) does the source give for COc1ccccc1NC(=O)C1=C(C)Nc2nc(-c3ccc(N(C)C)cc3)nn2C1c1ccncc1 (centres undefined) here?
**A.** The AC50 was 12.6 µM (inconclusive).

**Q.** For Cc1cccc(C)c1N1CCN(S(=O)(=O)c2ccc(F)cc2)CC1, which EC50 [3] is on record?
**A.** The EC50 was > 260 µM (inactive).

**Q.** Which EC50 [3] does the source give for COC(=O)C1(O)CC(CC(C)C)=NN1C(=O)c1ccccc1 (centres undefined) here?
**A.** Its EC50 is > 260 µM (inactive).

**Q.** Which AC50 (Cytochrome P450 1A2) does the source give for Cc1ccc(C(CC(=O)c2ccco2)SCCO)cc1 (centres undefined) here?
**A.** Its AC50 is 25.1 µM (inconclusive).

**Q.** Which EC50 [3] does the source give for CCOc1ccc(NC(=O)Cn2nnc(C(=O)NCc3ccco3)c2N)cc1 here?
**A.** Its EC50 is > 260 µM (inactive).

**Q.** With O=S(=O)(NCC(c1cccnc1)N1CCN(c2ccccc2)CC1)c1cc(F)ccc1F (centres undefined) as the compound, how does the EC50 [1] read?
**A.** Its EC50 is > 60 µM (not active).

**Q.** And the EC50 [2]?
**A.** Its EC50 is 508 nM (active).

**Q.** For CCn1c(C(=O)NCc2cccnc2)cc2sc(Cl)cc21, which EC50 [1] is on record?
**A.** The EC50 was > 60 µM (not active).

**Q.** And the EC50 [2]?
**A.** The EC50 was 1120 nM (active).

**Q.** What does the source list for CC(C)(C)c1cc2cccnc2n1Cc1cccc(F)c1?
**A.** AC50 (Cytochrome P450 1A2): 12.6 µM (inconclusive); AC50 (Cytochrome P450 2C19; read-out: AC50): 11.2 µM (inconclusive); AC50 (Cytochrome P450 3A4): 15.8 µM (inconclusive)

**Q.** Which EC50 [3] does the source give for CCOC(=O)C(CCOc1cccc(CC)c1)C(=O)OCC here?
**A.** The EC50 was 59.6 µM (active).

**Q.** With COc1cccc(Nc2c3c(nc4c(-c5ccccc5)c(C)nn24)CCC3)c1 as the compound, how does the EC50 (Streptokinase A) read?
**A.** Its EC50 is 8.91 µM (active).

**Q.** What about the EC50 (Streptococcus) of the same compound?
**A.** Its EC50 is > 150 µM (not active).

**Q.** And the EC50 [4]?
**A.** The EC50 was 15 µM (active).

**Q.** Which EC50 [3] does the source give for COc1ccc(-c2c(C)nn3c(Cl)c(C)c(C)nc23)cc1 here?
**A.** Its EC50 is 108 µM (active).

**Q.** With CC1=C(C(=O)N2CCOCC2)C(c2c(C)cc(C)cc2C)NC(S)=N1 (centres undefined) as the compound, how does the EC50 [3] read?
**A.** The EC50 was > 260 µM (inactive).

**Q.** Which AC50 (Cytochrome P450 1A2) does the source give for CCCSc1nc(C)cc(C)c1C(N)=O here?
**A.** Its AC50 is 28.2 µM (inconclusive).

**Q.** Which EC50 [3] does the source give for Cn1ccc(C(=O)N/N=C/c2ccncc2)n1 here?
**A.** Its EC50 is > 260 µM (inactive).

**Q.** Which AC50 (Cytochrome P450 1A2) does the source give for O=S(=O)(O)c1ccc(O)c2ncccc12 here?
**A.** The AC50 was 0.631 µM (inconclusive).

**Q.** With CC1(C)Cc2c(C#N)c(N)n(-c3ccccc3)c(=S)c2CO1 as the compound, how does the EC50 [3] read?
**A.** Its EC50 is > 260 µM (inactive).

**Q.** What does the source list for COc1ccc2c(c1)N(C[C@@H](C)CN(C)C)c1ccccc1S2 [DEXTROMEPROMAZINE]?
**A.** AC50 (Cytochrome P450 1A2): 15.8 µM (inconclusive); AC50 (Cytochrome P450 3A4): 7.94 µM (inconclusive)
